Results reported in patent US20110093959A1, “CRYPTOTIS PARVA SCREENING MODEL FOR ANTIEMETIC POTENTIAL” (priority 2008, published 2011).
“And” between values parts separate entries of the source, which are not always exact repeats. Equal entries are not always repeated.

Columns and labels:
Assay type in all cases: in vivo, Cryptotis parva
[1] = test system: Fos; assay: Fos expression in the dorsal vagal complex resulting from CIS-induced vomiting
Procedure: After the appropriate time period for acute or delayed phase vomiting, shrews were anesthetized with a lethal dose of pentobarbital (100 mg/kg) and perfused transcardially via blunted needle with a peristaltic pump. The shrew was perfused with ice cold 4% paraformaldehyde and 5% picric acid in pH 7.4, 0.1 M phosphate buffer (10 min). Brains were removed and stored in 30% sucrose in 0.1 M PB overnight, then embedded in blocks of 12% gelatin in 30% sucrose/PB. The blocks were postfixed for 3 hr in 2% paraformaldehyde/PB, then rinsed and immersed in 30% sucrose/PB until they sank (usually 1-2 hr). The brain block was cut sagittally on a freezing benchtop microtome (Leica) at 30 μm into 5 series, and stored in PB with 0.03% sodium azide.
Immunolabeling was accomplished by blocking a free-floating series with 10% normal horse serum (NHS) and 3% hydrogen peroxide in PB with 0.3% Tri-ton X-100 (TX) for 30 min. After rinsing in PB, tissue was put in sheep anti-Fos polyclonal antibody (Chemicon/Millipore, Temecula, Calif.; 1:600), with 5% NHS and 0.3% TX in PB, and incubated for about 42 hr at room temperature (RT) with gentle shaking. After rinsing in PB, the tissue was placed in biotinylated donkey anti-sheep IgG secondary antibody (Jackson Immunoresearch, West Grove, Pa.; 1:600) diluted in the same diluent described for the primary antibody, and the tissue incubated at RT with shaking for 75 min Tissue was then rinsed and incubated for 60 min in HRP-conjugated avidin-biotin complex (Vector Labs, Burlingame, Calif.; Vectastain kit diluted 1:2) in PB. Tissue was then rinsed twice in PB, then once in imidazole-acetate buffer (0.1 M, pH 7.4), then reacted for 6 min in 0.0006% hydrogen peroxide with 2% nickel ammonium sulfate-enhanced diaminobenzidine (DAB, 0.05% in 0.1 M imidazole-acetate buffer). All reagents for DAB processing were purchased from Sigma-Aldrich. […]

[2] = test system: CIS-induced vomiting in the Least Shrew; assay: THC and SR141716A on CIS (10 mg/kg)-induced vomiting, acute and delayed phase; details: CIS 10 mg/kg i.p., Δ^9-THC 2.5 mg/kg i.p., SR141716A 2 mg/kg i.p.
[3] = test system: CIS-induced emesis in the Least Shrew; assay: Tropisetron, Δ^9-THC and dexamethasone alone or in combination against CIS (20 mg/kg)-induced emesis, 60 min
Procedure: Briefly, all animals were randomly divided into two groups. On the test day, shrews were habituated to the laboratory environment for at least 1 hr prior to experimentation. […] All drugs were administered at a volume of 0.1 ml/10 g body weight. Immediately following the second injection, each shrew was placed in the observation cage, and both the number of animals vomiting per group and the frequency of vomiting (oral ejections of food or liquid) were recorded for the next 60 min
Poisson regression and logistic regression analyses were employed for two-way analysis of vomiting frequency and protection from emesis, respectively. […] Data regarding the frequency of emesis were analyzed by the Kruskal-Wallis nonparametric one-way analysis of variance (ANOVA), and post hoc analysis by Dunn's multiple comparisons test. The incidence of emesis (number of animals vomiting) was analyzed by Fisher's exact test to determine whether there were differences between groups, and when appropriate, pairwise comparisons were also made. A p value of<0.05 was necessary to achieve statistical significance.

[4] = 1 mg/kg i.p., administered alone
[5] = 5 mg/kg i.p., administered alone
[6] = Δ^9-THC 1 mg/kg with 0.1 mg/kg tropisetron
[7] = Δ^9-THC 5 mg/kg with 0.025 mg/kg tropisetron
[8] = Δ^9-THC 5 mg/kg with 0.1 mg/kg tropisetron
[9] = Δ^9-THC 5 mg/kg with 0.25 mg/kg tropisetron

Question: How did the “number of Fos-immunopositive nuclei vs vehicle injections” value ([1]; acute phase of CIV, NTS, AP and DMNX) turn out when `CCCCCc1cc(O)c2c(c1)OC(C)(C)[C@@H]1CCC(C)=C[C@@H]21` [Δ^9-THC, Δ^9-tetrahydrocannabinol] was run?
Answer: significantly (P<0.05) reduced

Question: And the “number of Fos-immunopositive nuclei vs vehicle-injected animals” value ([1]; delayed phase, NTS and DMNX)?
Answer: significantly fewer

Question: What about the “Number vomited per total in group” value ([2]; Acute phase) of the same molecule?
Answer: 1/8

Question: And the “Number vomited per total in group” value ([2]; Delayed phase)?
Answer: 2/9

Question: What about the “reduction in frequency of CIS-induced emesis” value ([3]; 0.25 mg/kg i.p., administered alone) of the same molecule?
Answer: 59.3%

Question: What about the “reduction in frequency of CIS-induced emesis” value ([3]; 0.5 mg/kg i.p., administered alone) of the same molecule?
Answer: 66.7%

Question: What about the “reduction in frequency of CIS-induced emesis” value [3, 4] of the same molecule?
Answer: 83.7%

Question: What about the “reduction in percentage of shrews vomiting in response to CIS” value (“reduction in percentage” below) [3, 4] of the same molecule?
Answer: 64%

Question: And the “reduction in percentage” value ([3]; 2.5 mg/kg i.p., administered alone)?
Answer: 83.3% and 83%

Question: What about the “reduction in frequency of CIS-induced emesis” value [3, 5] of the same molecule?
Answer: 96.7%

Question: And the “reduction in percentage” value [3, 5]?
Answer: 92% and 91.6%

Question: What about the “reduction in percentage” value ([3]; 10 mg/kg i.p., administered alone) of the same molecule?
Answer: 100%

Question: And the “additive or synergistic effect on percentage of animals vomiting” value ([3]; tested combinations of Δ^9-THC and tropisetron)?
Answer: no additive or synergistic antiemetic effects

Question: What about the “reduction in frequency of vomiting” value ([3]; Δ^9-THC 0.25 mg/kg coadministered with 5 mg/kg DEX) of the same molecule?
Answer: 55.5%

Question: And the “reduction in percentage” value ([3]; Δ^9-THC 0.25 mg/kg in shrews pretreated with 5 mg/kg DEX)?
Answer: 42%

Question: What about the “reduction in frequency of CIS-induced emesis” value ([3]; Δ^9-THC 0.25 mg/kg with 0.025 mg/kg tropisetron) of the same molecule?
Answer: 72.6%

Question: And the “reduction in frequency of CIS-induced emesis” value ([3]; Δ^9-THC 0.25 mg/kg with 0.1 mg/kg tropisetron)?
Answer: 69.7%

Question: What about the “reduction in frequency of CIS-induced emesis” value ([3]; Δ^9-THC 0.5 mg/kg with 0.025 mg/kg tropisetron) of the same molecule?
Answer: 56.1%

Question: And the “reduction in frequency of CIS-induced emesis” value ([3]; Δ^9-THC 0.5 mg/kg with 0.1 mg/kg tropisetron)?
Answer: 74.6%

Question: What about the “reduction in frequency of CIS-induced emesis” value ([3]; Δ^9-THC 1 mg/kg with 0.025 mg/kg tropisetron) of the same molecule?
Answer: 61.6%

Question: And the “reduction in frequency of CIS-induced emesis” value [3, 6]?
Answer: 88%

Question: What about the “reduction in number of shrews vomiting” value [3, 6] of the same molecule?
Answer: 77%

Question: What about the “reduction in frequency of CIS-induced emesis” value ([3]; Δ^9-THC 1 mg/kg with 0.25 mg/kg tropisetron) of the same molecule?
Answer: 91%

Question: And the “reduction in percentage” value ([3]; Δ^9-THC 2.5 mg/kg with DEX 0.25 mg/kg)?
Answer: 77%

Question: What about the “reduction in percentage” value ([3]; Δ^9-THC 2.5 mg/kg with DEX 1 mg/kg) of the same molecule?
Answer: 92%

Question: And the “reduction in percentage” value ([3]; Δ^9-THC 2.5 mg/kg with DEX 5 mg/kg)?
Answer: 79%

Question: And the “reduction in percentage” value ([3]; Δ^9-THC 2.5 mg/kg with DEX 10 mg/kg)?
Answer: 77%

Question: What about the “reduction in percentage” value ([3]; Δ^9-THC 2.5 mg/kg with DEX 20 mg/kg) of the same molecule?
Answer: 50%

Question: What about the “reduction in frequency of CIS-induced emesis” value [3, 7] of the same molecule?
Answer: 86.3%

Question: What about the “reduction in percentage” value [3, 7] of the same molecule?
Answer: 75%

Question: What about the “reduction in frequency of CIS-induced emesis” value [3, 8] of the same molecule?
Answer: 97.7%

Question: What about the “reduction in percentage” value [3, 8] of the same molecule?
Answer: 88%

Question: What about the “reduction in frequency of CIS-induced emesis” value [3, 9] of the same molecule?
Answer: 100%

Question: And the “reduction in percentage” value [3, 9]?
Answer: 100%

Question: What about the “reduction in percentage” value ([3]; Δ^9-THC 5 mg/kg with DEX 0.25 mg/kg) of the same molecule?
Answer: 83%

Question: What about the “reduction in percentage” value ([3]; Δ^9-THC 5 mg/kg with DEX 1 mg/kg) of the same molecule?
Answer: 92%

Question: What about the “reduction in percentage” value ([3]; Δ^9-THC 5 mg/kg with DEX 5 mg/kg) of the same molecule?
Answer: 77%

Question: And the “reduction in percentage” value ([3]; Δ^9-THC 5 mg/kg with DEX 10 mg/kg)?
Answer: 92%

Question: What about the “reduction in percentage” value ([3]; Δ^9-THC 5 mg/kg with DEX 20 mg/kg) of the same molecule?
Answer: 77%

Question: And the “reduction in percentage” value ([3]; Δ^9-THC 10 mg/kg with DEX 0.25 mg/kg)?
Answer: 92%

Question: What about the “reduction in percentage” value ([3]; Δ^9-THC 10 mg/kg with DEX 1 mg/kg) of the same molecule?
Answer: 83%

Question: What about the “reduction in percentage” value ([3]; Δ^9-THC 10 mg/kg with DEX 5 mg/kg) of the same molecule?
Answer: 67%

Question: And the “reduction in percentage” value ([3]; Δ^9-THC 10 mg/kg with DEX 10 mg/kg)?
Answer: 92%

Question: And the “reduction in percentage” value ([3]; Δ^9-THC 10 mg/kg with DEX 20 mg/kg)?
Answer: 75%

Question: What about the “combination efficacy in reducing the frequency of emesis” value ([3]; Δ^9-THC 0.25 and 0.5 mg/kg combined with tropisetron 0.025 and 0.1 mg/kg) of the same molecule?
Answer: significantly greater additive efficacy

Question: And the “effect on frequency of emesis” value ([3]; Δ^9-THC combined with 1 mg/kg or 5 mg/kg tropisetron)?
Answer: failed to produce significant reductions

Question: And the “additive or synergistic antiemetic activity” value ([3]; Δ^9-THC combined with DEX, at the doses tested)?
Answer: no significant additive or synergistic antiemetic activity
